Patent US9427446B2, “Stable injectable composition containing diclofenac and thiocolchicoside” (EPIFARMA S.R.L., priority 2012, dated 2016)

Assay: Suitability of BHT as antioxidant for a solution of diclofenac and thiocolchicoside (solubility/precipitation on storage)
Assay type: physicochemical
Conditions: ordinary storage conditions

Solubility / precipitation as antioxidant in a solution of diclofenac and thiocolchicoside: poor solubility and precipitation
Compound: Cc1cc(C(C)(C)C)c(O)c(C(C)(C)C)c1 [BHT, 2,6-bis(1,1-dimethylethyl)-4-methylphenol]
